Our source for the IC50 values is patent US9493486B2, “Diazaspirocycloalkane and azaspirocycloalkane” (Hoffmann-La Roche Inc., priority 2012, dated 2016).

For this experiment, the target named is ATX (human His-tagged) (Homo sapiens (Human), UniProt Q13822). Nature of the experiment: Human ATX enzyme inhibition assay (fluorescence quenching, MR121 substrate). Format: biochemical. As to conditions: 30 nM ATX, 1 μM MR121 substrate, 30° C. The source says:
Human ATX Enzyme Inhibition Assay
Assay working solutions were made as follows:

In turn, `O=C(OCc1ccc(Cl)nc1)N1CCC2(CC1)CN(C(=O)c1ccc3[nH]nnc3c1)C2` [Example 12.05, (6-chloropyridin-3-yl)methyl 2-(1H-benzo[d][1,2,3]triazole-5-carbonyl)-2,7-diazaspiro[3.5]nonane-7-carboxylate] showed a half-maximal inhibitory concentration (IC50) of 4980 nM.
Regarding `CS(=O)(=O)c1cc(COC(=O)N2CCC3(CC2)CN(C(=O)c2ccc4[nH]nnc4c2)C3)ccc1Cl` [Example 12.06, 4-chloro-3-(methylsulfonyl)benzyl 2-(1H-benzo[d][1,2,3]triazole-5-carbonyl)-2,7-diazaspiro[3.5]nonane-7-carboxylate], the concentration for half-maximal inhibition (IC50) was found to be 7240 nM.
In turn, `CC(OC(=O)N1CCC2(CC1)CN(C(=O)c1ccc3[nH]nnc3c1)C2)c1cc(Cl)cc(Cl)c1` (stereo not shown) [Example 12.07, 1-(3,5-dichlorophenyl)ethyl 2-(1H-benzo[d][1,2,3]triazole-5-carbonyl)-2,7-diazaspiro[3.5]nonane-7-carboxylate] gave a half-maximal inhibitory concentration (IC50) of 378 nM.
The same measure for `O=C(OCc1cncc(Cl)c1)N1CCC2(CC1)CN(C(=O)c1ccc3[nH]nnc3c1)C2` [Example 12.08, (5-chloropyridin-3-yl)methyl 2-(1H-benzo[d][1,2,3]triazole-5-carbonyl)-2,7-diazaspiro[3.5]nonane-7-carboxylate]: 3830 nM.
The same measure for `O=C(OCc1cncc(Br)c1)N1CCC2(CC1)CN(C(=O)c1ccc3[nH]nnc3c1)C2` [Example 12.09, (5-bromopyridin-3-yl)methyl 2-(1H-benzo[d][1,2,3]triazole-5-carbonyl)-2,7-diazaspiro[3.5]nonane-7-carboxylate]: 1640 nM.
With `O=C(OCc1cc(Cl)cc(Cl)n1)N1CCC2(CC1)CN(C(=O)c1ccc3[nH]nnc3c1)C2` [Example 12.10, (4,6-dichloropyridin-2-yl)methyl 2-(1H-benzo[d][1,2,3]triazole-5-carbonyl)-2,7-diazaspiro[3.5]nonane-7-carboxylate], the IC50 came to 291 nM.
The same measure for `O=C(OCc1ccc(F)c(Cl)c1)N1CCC2(CC1)CN(C(=O)c1ccc3[nH]nnc3c1)C2` [Example 12.11, 3-chloro-4-fluorobenzyl 2-(1H-benzo[d][1,2,3]triazole-5-carbonyl)-2,7-diazaspiro[3.5]nonane-7-carboxylate]: 168 nM; for `O=C(OCc1csc(Cl)c1)N1CCC2(CC1)CN(C(=O)c1ccc3[nH]nnc3c1)C2` [Example 12.12, (5-chlorothiophen-3-yl)methyl 2-(1H-benzo[d][1,2,3]triazole-5-carbonyl)-2,7-diazaspiro[3.5]nonane-7-carboxylate]: 332 nM.
As for `O=C(OCc1csc(Br)c1)N1CCC2(CC1)CN(C(=O)c1ccc3[nH]nnc3c1)C2` [Example 12.14, (5-bromothiophen-3-yl)methyl 2-(1H-benzo[d][1,2,3]triazole-5-carbonyl)-2,7-diazaspiro[3.5]nonane-7-carboxylate], half-maximal inhibition (IC50) required 270 nM.
`O=C(OCc1ccc(C(F)(F)F)cc1)N1CCC2(CC1)CN(C(=O)c1ccc3[nH]nnc3c1)C2` [Example 12.15, 4-(trifluoromethyl)benzyl 2-(1H-benzo[d][1,2,3]triazole-5-carbonyl)-2,7-diazaspiro[3.5]nonane-7-carboxylate] yielded a half-inhibitory concentration (IC50) of 35 nM.
On to `O=C(OCc1cc(Cl)cc(Cl)c1)N1CCC2(CCN(C(=O)c3ccc4[nH]nnc4c3)C2)C1` (stereo not shown) [Example 12.16, 3,5-dichlorobenzyl 7-(1H-benzo[d][1,2,3]triazole-5-carbonyl)-2,7-diazaspiro[4.4]nonane-2-carboxylate], for which the IC50 was determined as 457 nM.
The same measure for `O=C(NC1CC2(C1)CN(C(=O)OCc1cc(Cl)cc(OC(F)(F)F)c1)C2)c1ccc2[nH]nnc2c1` [Example 12.18, 6-[(1H-benzotriazole-5-carbonyl)-amino]-2-aza-spiro[3.3]heptane-2-carboxylic acid 3-chloro-5-trifluoromethoxy-benzyl ester]: 53.5 nM; for `O=C(NC1CC2(C1)CN(C(=O)OCc1cccc(C(F)(F)F)c1)C2)c1ccc2[nH]nnc2c1` [Example 12.19, 6-[(1H-benzotriazole-5-carbonyl)-amino]-2-aza-spiro[3.3]heptane-2-carboxylic acid 3-trifluoromethyl-benzyl ester]: 2150 nM.
The same measure for `N#Cc1cc(Cl)cc(COC(=O)N2CC3(CC(NC(=O)c4ccc5[nH]nnc5c4)C3)C2)c1` [Example 12.20, 6-[(1H-benzotriazole-5-carbonyl)-amino]-2-aza-spiro[3.3]heptane-2-carboxylic acid 3-chloro-5-cyano-benzyl ester]: 5640 nM; for `O=C(NC1CC2(C1)CN(C(=O)OCc1ccc(F)c(Cl)c1)C2)c1ccc2[nH]nnc2c1` [Example 12.21, 6-[(1H-benzotriazole-5-carbonyl)-amino]-2-aza-spiro[3.3]heptane-2-carboxylic acid 3-chloro-4-fluoro-benzyl ester]: 1250 nM.
For `O=C(OCc1ccc(C(F)(F)F)cc1)N1CCC2(CC1)CN(C(=O)c1ccc3[nH]c(=O)oc3c1)C2` [Example 12.22, 4-(trifluoromethyl)benzyl 2-(2-oxo-2,3-dihydrobenzo[d]oxazole-6-carbonyl)-2,7-diazaspiro[3.5]nonane-7-carboxylate], half-maximal inhibition (IC50) required 439 nM.
For the compound `O=C(NC1CC2(C1)CN(C(=O)OCc1cc(F)cc(C(F)(F)F)c1)C2)c1ccc2[nH]nnc2c1` [Example 12.23, 6-[(1H-benzotriazole-5-carbonyl)-amino]-2-aza-spiro[3.3]heptane-2-carboxylic acid 3-fluoro-5-trifluoromethyl-benzyl ester], 1910 nM corresponded to half-maximal inhibition (IC50).
The same measure for `Cc1ccc(COC(=O)N2CC3(CC(NC(=O)c4ccc5[nH]nnc5c4)C3)C2)cc1Cl` [Example 12.24, 6-[(1H-benzotriazole-5-carbonyl)-amino]-2-aza-spiro[3.3]heptane-2-carboxylic acid 3-chloro-4-methyl-benzyl ester]: 229 nM.
As to `CS(=O)(=O)c1cc(COC(=O)N2CCC3(CC2)CN(C(=O)c2ccc4[nH]nnc4c2)C3)cc(C(F)(F)F)c1` [Example 12.25, 3-(methylsulfonyl)-5-(trifluoromethyl)benzyl 2-(1H-benzo[d][1,2,3]triazole-5-carbonyl)-2,7-diazaspiro[3.5]nonane-7-carboxylate], it took 92 nM to reach half-maximal inhibition (IC50).
For `CS(=O)(=O)c1cc(COC(=O)N2CCC3(CC2)CN(C(=O)c2ccc4[nH]c(=O)oc4c2)C3)cc(C(F)(F)F)c1` [Example 12.26, 3-(methylsulfonyl)-5-(trifluoromethyl)benzyl 2-(2-oxo-2,3-dihydrobenzo[d]oxazole-6-carbonyl)-2,7-diazaspiro[3.5]nonane-7-carboxylate], half-maximal inhibition (IC50) required 53 nM.
For `CS(=O)(=O)c1cc(Cl)ccc1COC(=O)N1CCC2(CC1)CN(C(=O)c1ccc3[nH]nnc3c1)C2` [Example 12.27, 4-chloro-2-(methylsulfonyl)benzyl 2-(1H-benzo[d][1,2,3]triazole-5-carbonyl)-2,7-diazaspiro[3.5]nonane-7-carboxylate], the IC50 was determined as 140 nM.
In turn, `CS(=O)(=O)c1ccc(COC(=O)N2CCC3(CC2)CN(C(=O)c2ccc4[nH]nnc4c2)C3)c(Cl)c1` [Example 12.28, 2-chloro-4-(methylsulfonyl)benzyl 2-(1H-benzo[d][1,2,3]triazole-5-carbonyl)-2,7-diazaspiro[3.5]nonane-7-carboxylate] had an IC50 of 138 nM.

The term IC50 denotes the midpoint of a concentration-inhibition curve.
